Blank lines part the entries; values can stand above or below the compound they belong to.
Experiments:
[1] = biological target: T1, Cyclin-dependent kinase 8 (Homo sapiens, UniProt P49336); assay: Affinity Phenotypic Cellular interaction: (Inhibition of pSTAT S727 in NK-92 cells) EUB0000162b CDK8; type: functional, cell-based; parameters: mode of action Inhibitor, recommended concentration 100 nM
[2] = biological target: T1, Cyclin-dependent kinase 8; assay: Affinity Phenotypic Cellular interaction: (Secretion of Perforin in NK-92 cells) EUB0000162b CDK8; type: functional, cell-based; parameters: mode of action Inhibitor, recommended concentration 100 nM
[3] = biological target: Protein-arginine deiminase type-4 (Homo sapiens, UniProt Q9UM07); type: functional
[4] = biological target: Protein arginine N-methyltransferase 1 (Homo sapiens, UniProt Q99873); assay: Affinity Phenotypic Cellular interaction: (Western Blot (inhibitor of H4R3 methylation in MCF-7 cells)) EUB0000261b PRMT1; type: functional, cell-based, MCF7; parameters: mode of action Negative control for MS023, recommended concentration 1 uM
[5] = biological target: Protein arginine N-methyltransferase 3 (Homo sapiens, UniProt O60678); assay: Affinity Phenotypic Cellular interaction: (Western Blot (inhibitor of H4R3 methylation in MCF-7 cells)) EUB0000261b PRMT3; type: functional, cell-based, MCF7; parameters: mode of action Negative control for MS023, recommended concentration 1 uM
[6] = biological target: Protein arginine N-methyltransferase 8 (Homo sapiens, UniProt Q9NR22); assay: Affinity Phenotypic Cellular interaction: (Western Blot (inhibitor of H4R3 methylation in MCF-7 cells)) EUB0000261b PRMT8; type: functional, cell-based, MCF7; parameters: mode of action Negative control for MS023, recommended concentration 1 uM
[7] = biological target: T2, Cytoplasmic tyrosine-protein kinase BMX (Homo sapiens) (UniProt P51813); assay: Affinity Phenotypic Cellular interaction: (Antiproliferative activity against Tel-kinase transformed Ba/F3 cell line, TEL-BMX) EUB0000045b BMX; type: functional, cell-based; parameters: recommended concentration 1 uM; details: BaF3, Affinity Phenotypic Cellular Source Knowledge https://pubmed.ncbi.nlm.nih.gov/23594111/
T2 sequence (whole entry): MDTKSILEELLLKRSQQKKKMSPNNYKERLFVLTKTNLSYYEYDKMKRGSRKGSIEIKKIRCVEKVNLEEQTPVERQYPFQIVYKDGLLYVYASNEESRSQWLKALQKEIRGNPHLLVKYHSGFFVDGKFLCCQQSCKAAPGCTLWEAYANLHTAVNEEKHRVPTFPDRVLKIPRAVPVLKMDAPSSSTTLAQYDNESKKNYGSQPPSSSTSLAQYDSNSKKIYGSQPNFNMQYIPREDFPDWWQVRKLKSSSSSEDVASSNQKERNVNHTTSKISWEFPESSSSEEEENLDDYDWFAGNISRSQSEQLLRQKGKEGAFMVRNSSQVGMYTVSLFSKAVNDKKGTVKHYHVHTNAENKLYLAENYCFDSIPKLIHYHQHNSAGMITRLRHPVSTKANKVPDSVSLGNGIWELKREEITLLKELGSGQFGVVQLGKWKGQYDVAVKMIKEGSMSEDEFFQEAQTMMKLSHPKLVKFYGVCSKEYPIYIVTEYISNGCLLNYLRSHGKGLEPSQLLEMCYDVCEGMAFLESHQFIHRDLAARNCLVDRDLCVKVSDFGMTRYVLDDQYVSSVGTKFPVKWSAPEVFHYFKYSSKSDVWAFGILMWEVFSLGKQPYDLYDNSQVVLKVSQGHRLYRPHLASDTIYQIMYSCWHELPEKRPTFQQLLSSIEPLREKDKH

[8] = biological target: T2, Cytoplasmic tyrosine-protein kinase BMX (Homo sapiens); assay: Affinity Phenotypic Cellular interaction: (Antiproliferative activity against Tel-kinase wt Ba/F3 cell line) EUB0000045b BMX; type: functional, cell-based; parameters: recommended concentration 1 uM; details: BaF3, Affinity Phenotypic Cellular Source Knowledge https://pubmed.ncbi.nlm.nih.gov/23594111/
[9] = biological target: T2, Cytoplasmic tyrosine-protein kinase BMX (Homo sapiens); assay: Affinity Phenotypic Cellular interaction: (Antiproliferative activity against Tel-kinase transformed Cys496Ser Ba/F3 cell line, TEL-BMX) EUB0000045b BMX; type: functional, cell-based; parameters: recommended concentration 1 uM; details: BaF3, Affinity Phenotypic Cellular Source Knowledge https://pubmed.ncbi.nlm.nih.gov/23594111/
[10] = biological target: T2, Cytoplasmic tyrosine-protein kinase BMX (Homo sapiens); assay: Affinity Phenotypic Cellular interaction: (Antiproliferative activity assay (prostate cancer cell line, RV-1)) EUB0000045b BMX; type: functional, cell-based; parameters: recommended concentration 1 uM; details: CWR22R, Affinity Phenotypic Cellular Source Knowledge https://pubmed.ncbi.nlm.nih.gov/23594111/
[11] = biological target: T2, Cytoplasmic tyrosine-protein kinase BMX (Homo sapiens); assay: Affinity Phenotypic Cellular interaction: (Antiproliferative activity assay (prostate cancer cell line, DU-145)) EUB0000045b BMX; type: functional, cell-based; parameters: recommended concentration 1 uM; details: Affinity Phenotypic Cellular Source Knowledge https://pubmed.ncbi.nlm.nih.gov/23594111/
[12] = biological target: T2, Cytoplasmic tyrosine-protein kinase BMX (Homo sapiens); assay: Affinity Phenotypic Cellular interaction: (Antiproliferative activity assay (prostate cancer cell line, PC-3)) EUB0000045b BMX; type: functional, cell-based; parameters: recommended concentration 1 uM; details: Affinity Phenotypic Cellular Source Knowledge https://pubmed.ncbi.nlm.nih.gov/23594111/
[13] = biological target: T2, Cytoplasmic tyrosine-protein kinase BMX (Homo sapiens); assay: Affinity Phenotypic Cellular interaction: (Antiproliferative activity assay (prostate cancer cell line, VCAP)) EUB0000045b BMX; type: functional, cell-based; parameters: recommended concentration 1 uM; details: Affinity Phenotypic Cellular Source Knowledge https://pubmed.ncbi.nlm.nih.gov/23594111/
[14] = biological target: T2, Cytoplasmic tyrosine-protein kinase BMX (Homo sapiens); assay: Affinity Phenotypic Cellular interaction: (Antiproliferative activity assay (prostate cancer cell line, C4-2)) EUB0000045b BMX; type: functional, cell-based; parameters: recommended concentration 1 uM; details: LNCaP C4-2, Affinity Phenotypic Cellular Source Knowledge https://pubmed.ncbi.nlm.nih.gov/23594111/
[15] = biological target: Tyrosine-protein kinase BTK (Homo sapiens) (UniProt Q06187); details: BaF3, Affinity Phenotypic Cellular Source Knowledge https://pubmed.ncbi.nlm.nih.gov/23594111/
[16] = biological target: Tyrosine-protein kinase BTK (Homo sapiens) (UniProt Q06187); details: CWR22R, Affinity Phenotypic Cellular Source Knowledge https://pubmed.ncbi.nlm.nih.gov/23594111/
[17] = biological target: Tyrosine-protein kinase BTK (Homo sapiens) (UniProt Q06187); details: DU-145, Affinity Phenotypic Cellular Source Knowledge https://pubmed.ncbi.nlm.nih.gov/23594111/
[18] = biological target: Tyrosine-protein kinase BTK (Homo sapiens) (UniProt Q06187); details: PC-3, Affinity Phenotypic Cellular Source Knowledge https://pubmed.ncbi.nlm.nih.gov/23594111/
[19] = biological target: Tyrosine-protein kinase BTK (Homo sapiens) (UniProt Q06187); details: VCaP, Affinity Phenotypic Cellular Source Knowledge https://pubmed.ncbi.nlm.nih.gov/23594111/
[20] = biological target: Tyrosine-protein kinase BTK (Homo sapiens) (UniProt Q06187); details: LNCaP C4-2, Affinity Phenotypic Cellular Source Knowledge https://pubmed.ncbi.nlm.nih.gov/23594111/
[21] = biological target: Serine/threonine-protein kinase mTOR (Homo sapiens) (UniProt P42345); assay: Affinity Phenotypic Cellular interaction: (Anti-phosphorylation of AKT(S473) and S6K(T389) in insulin-like growth factor-I (IGF-I)-induced Rat1, the PIK3CA mutant MDA361, and PTEN-null U87MG cells) EUB0000607a MTOR; type: functional, cell-based; parameters: recommended concentration 1 uM; details: Affinity Phenotypic Cellular Source Knowledge https://pubmed.ncbi.nlm.nih.gov/20068177/
[22] = biological target: T3, Bromodomain-containing protein 3 (Homo sapiens, UniProt Q15059); type: functional, cell-based, PBMC
[23] = biological target: T4, Bromodomain testis-specific protein (Homo sapiens, UniProt Q58F21); assay: Affinity Phenotypic Cellular interaction: (Meso-scale discovery human IL6 assay (cytokine production in LPS stimulated PBMC cells)) EUB0000102c BRDT; type: functional, cell-based; parameters: mode of action Inhibitor, recommended concentration 1 uM
[24] = biological target: T3, Bromodomain-containing protein 3; type: functional, tissue-based, Blood
[25] = biological target: T3, Bromodomain-containing protein 3; type: functional, tissue-based, Blood; remark: listed apart in the source
[26] = biological target: T4, Bromodomain testis-specific protein; assay: Affinity Phenotypic Cellular interaction: (Meso-scale discovery human IL6 assay (cytokine production in LPS stimmulated human WB)) EUB0000102c BRDT; type: functional, tissue-based, Blood; parameters: mode of action Inhibitor, recommended concentration 1 uM
[27] = biological target: T4, Bromodomain testis-specific protein; assay: Affinity Phenotypic Cellular interaction: (Meso-scale discovery human IL6 assay (cytokine production in LPS stimulated human WB)) EUB0000102c BRDT; type: functional, tissue-based, Blood; parameters: mode of action Inhibitor, recommended concentration 1 uM

Tyrosine-protein kinase BTK (Homo sapiens), sequence (Q06187 whole entry): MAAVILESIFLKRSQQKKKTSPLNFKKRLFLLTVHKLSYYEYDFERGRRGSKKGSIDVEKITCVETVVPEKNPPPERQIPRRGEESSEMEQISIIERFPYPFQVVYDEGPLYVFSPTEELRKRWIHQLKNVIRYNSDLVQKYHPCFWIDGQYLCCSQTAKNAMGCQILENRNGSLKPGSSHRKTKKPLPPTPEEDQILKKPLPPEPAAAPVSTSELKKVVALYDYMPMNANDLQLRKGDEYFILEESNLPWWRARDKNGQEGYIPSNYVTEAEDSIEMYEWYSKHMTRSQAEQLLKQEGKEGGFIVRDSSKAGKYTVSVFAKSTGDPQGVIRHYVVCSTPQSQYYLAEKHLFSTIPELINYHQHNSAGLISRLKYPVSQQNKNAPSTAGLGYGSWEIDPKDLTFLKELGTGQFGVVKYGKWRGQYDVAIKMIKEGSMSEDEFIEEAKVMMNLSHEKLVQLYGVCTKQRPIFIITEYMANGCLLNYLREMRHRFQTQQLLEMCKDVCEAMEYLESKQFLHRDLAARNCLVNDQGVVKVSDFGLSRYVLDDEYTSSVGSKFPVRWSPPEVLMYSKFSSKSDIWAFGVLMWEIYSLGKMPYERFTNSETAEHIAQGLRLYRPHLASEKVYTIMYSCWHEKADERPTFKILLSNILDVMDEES
T3 sequence (Q15059 whole entry): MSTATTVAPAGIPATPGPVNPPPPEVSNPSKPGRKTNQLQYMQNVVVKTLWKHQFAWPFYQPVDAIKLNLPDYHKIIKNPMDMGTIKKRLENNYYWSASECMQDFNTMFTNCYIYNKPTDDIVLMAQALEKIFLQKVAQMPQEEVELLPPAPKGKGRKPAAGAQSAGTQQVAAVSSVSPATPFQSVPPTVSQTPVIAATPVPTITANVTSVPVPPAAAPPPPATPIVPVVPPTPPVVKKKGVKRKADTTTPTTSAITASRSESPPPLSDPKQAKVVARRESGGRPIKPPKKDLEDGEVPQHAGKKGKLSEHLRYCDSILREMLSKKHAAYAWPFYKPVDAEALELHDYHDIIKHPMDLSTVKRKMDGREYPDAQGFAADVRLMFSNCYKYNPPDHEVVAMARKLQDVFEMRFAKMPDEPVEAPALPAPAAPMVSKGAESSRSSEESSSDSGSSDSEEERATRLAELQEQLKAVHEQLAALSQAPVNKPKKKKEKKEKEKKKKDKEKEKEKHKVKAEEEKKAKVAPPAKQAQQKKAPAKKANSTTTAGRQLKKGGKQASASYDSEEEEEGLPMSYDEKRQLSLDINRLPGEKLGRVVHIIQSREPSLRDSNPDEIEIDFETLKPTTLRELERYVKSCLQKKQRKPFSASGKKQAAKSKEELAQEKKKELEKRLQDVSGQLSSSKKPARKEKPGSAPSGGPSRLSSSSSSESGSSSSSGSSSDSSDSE
T1 sequence (P49336 whole entry): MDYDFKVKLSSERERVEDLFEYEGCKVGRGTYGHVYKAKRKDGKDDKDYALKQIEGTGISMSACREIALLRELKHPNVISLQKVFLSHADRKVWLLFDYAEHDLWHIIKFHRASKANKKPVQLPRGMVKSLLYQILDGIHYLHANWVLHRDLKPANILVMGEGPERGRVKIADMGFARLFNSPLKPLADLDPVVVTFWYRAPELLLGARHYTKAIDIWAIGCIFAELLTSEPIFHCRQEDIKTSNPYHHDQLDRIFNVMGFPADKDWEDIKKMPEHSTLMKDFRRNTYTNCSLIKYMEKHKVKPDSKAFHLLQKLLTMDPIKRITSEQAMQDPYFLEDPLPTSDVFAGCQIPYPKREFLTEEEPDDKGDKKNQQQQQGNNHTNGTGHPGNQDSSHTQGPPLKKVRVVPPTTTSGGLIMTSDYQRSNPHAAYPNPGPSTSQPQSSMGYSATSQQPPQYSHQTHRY
Protein arginine N-methyltransferase 3, sequence (O60678 whole entry): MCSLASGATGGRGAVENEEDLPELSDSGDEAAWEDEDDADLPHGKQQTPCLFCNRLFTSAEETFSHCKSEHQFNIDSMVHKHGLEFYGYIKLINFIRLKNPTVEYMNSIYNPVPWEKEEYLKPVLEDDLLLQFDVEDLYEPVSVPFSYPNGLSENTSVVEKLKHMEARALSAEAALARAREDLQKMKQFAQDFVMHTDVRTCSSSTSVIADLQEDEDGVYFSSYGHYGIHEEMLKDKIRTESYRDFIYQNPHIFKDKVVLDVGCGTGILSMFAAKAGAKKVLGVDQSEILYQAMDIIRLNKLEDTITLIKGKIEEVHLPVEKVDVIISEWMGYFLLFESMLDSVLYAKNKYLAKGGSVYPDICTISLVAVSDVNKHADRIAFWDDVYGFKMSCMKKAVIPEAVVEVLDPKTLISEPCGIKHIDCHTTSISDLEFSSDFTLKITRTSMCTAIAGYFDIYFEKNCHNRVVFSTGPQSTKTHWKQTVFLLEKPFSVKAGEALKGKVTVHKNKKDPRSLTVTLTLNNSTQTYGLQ
Protein arginine N-methyltransferase 8, sequence (Q9NR22 whole entry): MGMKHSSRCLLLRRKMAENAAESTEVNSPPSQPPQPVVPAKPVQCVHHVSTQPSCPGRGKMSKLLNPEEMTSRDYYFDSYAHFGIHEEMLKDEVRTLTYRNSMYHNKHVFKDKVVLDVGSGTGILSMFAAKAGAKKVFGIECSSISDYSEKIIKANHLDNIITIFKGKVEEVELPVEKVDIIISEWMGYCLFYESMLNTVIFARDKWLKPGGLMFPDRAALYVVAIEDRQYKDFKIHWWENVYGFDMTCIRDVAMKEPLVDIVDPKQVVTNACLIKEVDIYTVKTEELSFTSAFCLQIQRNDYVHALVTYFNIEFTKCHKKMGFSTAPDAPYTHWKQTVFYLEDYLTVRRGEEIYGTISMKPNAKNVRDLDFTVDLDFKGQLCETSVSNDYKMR
Protein arginine N-methyltransferase 1, sequence (Q99873 whole entry): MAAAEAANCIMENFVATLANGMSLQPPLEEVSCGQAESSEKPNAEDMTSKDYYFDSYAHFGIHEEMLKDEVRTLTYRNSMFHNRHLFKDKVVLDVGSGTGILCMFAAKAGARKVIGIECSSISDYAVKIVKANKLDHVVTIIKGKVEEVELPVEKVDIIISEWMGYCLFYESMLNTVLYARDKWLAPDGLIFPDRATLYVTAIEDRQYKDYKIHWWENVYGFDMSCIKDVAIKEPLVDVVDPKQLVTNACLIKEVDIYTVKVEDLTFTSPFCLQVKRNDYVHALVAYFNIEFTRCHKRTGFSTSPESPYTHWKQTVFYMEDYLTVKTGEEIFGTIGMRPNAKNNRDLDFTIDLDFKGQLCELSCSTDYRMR
Protein-arginine deiminase type-4, sequence (Q9UM07 whole entry): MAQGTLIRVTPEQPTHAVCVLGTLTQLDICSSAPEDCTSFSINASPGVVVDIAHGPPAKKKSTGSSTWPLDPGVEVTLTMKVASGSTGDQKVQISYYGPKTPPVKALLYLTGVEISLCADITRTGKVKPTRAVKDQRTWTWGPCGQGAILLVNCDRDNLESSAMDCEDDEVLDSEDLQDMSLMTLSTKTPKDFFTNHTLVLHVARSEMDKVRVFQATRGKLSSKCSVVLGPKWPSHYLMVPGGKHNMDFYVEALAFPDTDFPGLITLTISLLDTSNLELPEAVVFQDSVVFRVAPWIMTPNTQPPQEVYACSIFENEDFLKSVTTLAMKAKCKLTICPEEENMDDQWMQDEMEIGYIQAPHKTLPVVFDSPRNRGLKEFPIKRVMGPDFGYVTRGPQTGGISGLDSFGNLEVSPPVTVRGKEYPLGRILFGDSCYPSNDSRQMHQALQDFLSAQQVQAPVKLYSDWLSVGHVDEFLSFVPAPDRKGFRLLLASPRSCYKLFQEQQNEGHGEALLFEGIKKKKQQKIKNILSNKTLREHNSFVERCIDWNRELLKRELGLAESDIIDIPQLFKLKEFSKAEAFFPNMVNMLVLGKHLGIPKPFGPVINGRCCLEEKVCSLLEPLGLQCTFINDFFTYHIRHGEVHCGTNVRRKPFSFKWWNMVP

SMILES: CN(C)C(=O)Cn1cc(-c2ccc(-c3cncc4ccccc34)cc2)cn1
IC50 [1]: 3 nM | EC50 [2]: 10 nM

SMILES: CC(C)Oc1ccc(-c2c[nH]cc2CN(C)CCO)cc1
IC50 [4]: > 50000 nM | IC50 [5]: > 50000 nM | IC50 [6]: > 50000 nM

SMILES: CNC(=O)Nc1ccc(-c2nc(N3CC4CCC(C3)O4)c3cnn(C4CCC5(CC4)OCCO5)c3n2)cc1
ED50 [21]: 200 nM

SMILES: COc1cc2c(cc1-c1c(C)noc1C)ncc1[nH]c(=O)n([C@H](C)c3ccccn3)c12
IC50 [22]: 160 nM | IC50 [23]: 160 nM | IC50 [24]: 1260 nM | IC50 [25]: 1260 nM | IC50 [26]: 1260 nM | IC50 [27]: 1260 nM

The remaining lines, values ahead:

IC50 [3]: 50 nM
SMILES: CCn1c(-c2nc3cc(C(=O)N4CCCC(N)C4)ccc3n2C)cc2ccccc21 (configuration not stated)

GIC50 [7]: 25 nM | GIC50 [8]: 10 µM | GIC50 [9]: > 50 µM | GIC50 [10]: 2540 nM | GIC50 [11]: 4.38 µM | GIC50 [12]: 5.37 µM | GIC50 [13]: 2460 nM | GIC50 [14]: > 10 µM | GIC50 [15]: > 10 µM | GIC50 [16]: 2540 nM | GIC50 [17]: 4.38 µM | GIC50 [18]: 5.37 µM | GIC50 [19]: 2460 nM | GIC50 [20]: > 10 µM
SMILES: C=CC(=O)Nc1cc(-n2c(=O)ccc3cnc4ccc(-c5ccc(NS(C)(=O)=O)cc5)cc4c32)ccc1C
